Test results reported in US20050267067A1, “Radical reaction inhibitors, method for inhibition of radical reactions, and use thereof” (priority 2002, published 2005).

Legend:
[1] = Modification of L-lysine by lipid peroxides (protein carbonyl, OLAARPs); settings: for OLAARPs Formation: (%) / Protein carbonyl Formation: (%): L-lysine, versus no saccharide; for Formed OLAARPs / Formed Protein carbonyl: 37° C., 24 hours
Description: In this experiment, saccharide solutions were prepared to give an equal total saccharide molar concentration in each solution.
As a negative control, PBS was used.
To five milliliters of either of the above saccharide solutions for testing or the negative control was added 10 mg of calf serum albumin (BSA) or L-lysine, followed by dissolving. To each of the resulting solutions was added 25 μg of 2,4-decadienal or malondialdehyde (MDA) as a lipid peroxide, followed by reaction at 37° C. for 24 hours. After completion of the reaction, protein carbonyl and reaction products of oxidized lipids/aminoacids (OLAARPs) formed as aldehyde adducts were quantified on the calorimetric method. […] The formation levels of protein carbonyl and OLAARPs were determined based on the absorbances obtained in this experiment, in terms of the molar absorbance coefficient for each molecule as disclosed in Biochim. Biophys. Acta, No. 1,258, pp. 319-327 (1985).
To each of the resulting mixtures was added 600 μl of 30% trichloroacetic acid, and the mixture was allowed to stand at 0° C. for one hour and centrifuged at 10,000 rpm for 15 min to obtain a precipitate, followed by washing the resulting precipitate four times with two milliliters of ethanol/ethylacetate (1:1), respectively, adding 1.5 ml of 6M-guanidine hydrochloride/20 mM-NaPi/TFA (pH 2.3) to the resultant, allowing the mixture to stand at 37° C. for 30 min, and measuring the absorbance of the resulting mixture at a wavelength of 580 nm, ε=35,000 M^−1 cm^−1. […] To any one of the resulting mixtures was added two milliliters of a 12.5 mM DNPH/2.5 N-hydrochloride solution, and the resulting mixture was allowed to stand at 45° C. for 30 min, followed by measuring the absorbance of the resulting mixture at a wavelength of 580 nm, E=35,000 M^−1 cm^−1.

[2] = Preservation of powdery vitamin E preparations at 60° C., GC; type: physicochemical; settings: for Amount of vitamin E: per one gram of vitamin E preparation
Description: Vitamin E (α-tocopherol) commercialized by Wako Pure Chemical Industries Ltd., Tokyo, Japan, was dissolved in ethanol (a special grade reagent, commercialized by Katayama Chemical Industries Co., Ltd., Osaka, Japan) to make into an ethanol solution with a vitamin E content of 10%. Ten grams of the powdery anhydrous cyclotetrasaccharide, prepared in Example 3, were placed in a glass mortar and then a small amount of […] was added to the cyclotetrasaccharide. Using a glass rod, the mixture was repeatedly mixed with additional ethanol or acetic acid until the mixture could not keep its powdery form. Thus, a vitamin E preparation was obtained. As controls, vitamin E preparations were prepared by using “ISOELITE P™”, a powdery branched cyclodextrin commercialized by Ensuiko Sugar Refining Co., Ltd., Tokyo, Japan, a powdery anhydrous crystalline α,α-trehalose prepared according to the method disclosed in Japanese Patent Kokai No. 213,283/95, “PINEFIBER™”, a powdery dextrin product commercialized by Matsutani Chemical Industries Co., Ltd., Hyogo, Japan, or a soluble starch commercialized by Katayama Chemical Industries Co., Ltd., Osaka, Japan, except for using cyclotetrasaccharide by the same procedure. Successively, each powdery vitamin E preparation was dried under a reduced pressure by keeping the preparation at ambient temperature for five hours in a desiccators containing (P2O5) to evaporate ethanol. About 0.5 gram each of the five powdery vitamin E preparations containing any one of those saccharides was weighted and placed in 20 ml-glass vials and sealed. […] The amount of vitamin E in each sample was determined by: adding 10 ml of ethanol to each of the vials containing the test samples; extracting vitamin E by shaking the resulting suspensions; centrifuging the suspensions at 10,000 rpm for 10 minutes; and measuring the amount of vitamin E in the resulting supernatants by gas-chromatography (GC). GC was carried out using “GC-14A”, a GL apparatus produced by Shimadzu Corporation, Kyoto, Japan, installed with “DB-1”, a column (internal diameter: 0.25 mm, length: 30 m) commercialized by Agilent Technologies, USA (former name; J & W Scientific, USA). The amount of vitamin E (mg) per one gram of a vitamin E preparation and the residual vitamin E (%) was calculated and expressed with a relative value, when the amount of vitamin E in each test sample just after its preparation was regarded as 100%, as shown in Table 11.

[3] = Preservation of vitamin D3 tablets at 60° C., absorbance at 265 nm; type: physicochemical; settings: for Amount of vitamin D3: per one gram of vitamin D3 tablet
Description: Vitamin D3 (cholecalciferol), as vitamin D, commercialized by Wako Pure Chemical Industries Ltd., Tokyo, Japan, was dissolved in ethanol with the highest purity, commercialized by Katayama Chemical Industries Co., Ltd., Osaka, Japan, to make into an ethanol solution with a vitamin D3 content of 3%. To eight grams of the powdery anhydrous cyclotetrasaccharide, prepared in Example 3, was added 1.5 ml of the above ethanol solution and the resulting mixture was pulverized similarly as in Example 20, dried under a reduced pressure, and made into a powdery vitamin D3 preparation containing cyclotetrasaccharide. […] About 0.3 gram each of the powdery vitamin D3 preparations containing any one of the above saccharides was made into a vitamin D3 tablet by pressurizing at 200 kg/cm^2 for two minutes using a tablet machine. Vitamin D3 tablets thus obtained were weighted and each one tablet of which was placed in a 20 ml-glass vial and sealed to obtain five kinds of vitamin D3 tablets containing a saccharide. The vials were preserved under a normal pressure at 60° C. and the amount of vitamin D3 remaining in the vials was examined just after preparation, after preserving for two hours, one day, two days, and seven days, respectively. The amount of vitamin D3 in each tablet was determined by: adding 10 ml of 70% aqueous ethanol solution to each vial containing any of the test samples; crushing the tablets using a glass rod before extracting vitamin D3; filling up the total volume to 50 ml with 70% aqueous ethanol solution; centrifuging the resulting solutions at 10,000 rpm for 10 minutes; filtrating the resulting supernatants; and measuring the absorbance at a wavelength of 265 nm for the resulting filtrates. The amount of vitamin D3 was calculated based on the absorbance coefficient (E1%) at a wavelength of 265 nm, which was regarded as 475. The amount of vitamin D3 (mg) per one gram of each of the vitamin D3 tablets and the residual vitamin D3 (%) was calculated based on the amount of vitamin D3 in the test samples just after preparation, which was regarded as 100%. The results are in Table

[4] = added lipid peroxide 2,4-decadienal
[5] = added lipid peroxide malondialdehyde (MDA)
[6] = just after its preparation (regarded as 100%)
[7] = 2,4-decadienal, listed as cyclotetrasaccharide
[8] = MDA, listed as cyclotetrasaccharide

Q: Which “OLAARPs Formation: (%)” value ([1]; 2,4-decadienal) does the source give for OC[C@H]1O[C@H](O[C@H]2O[C@H](CO)[C@@H](O)[C@H](O)[C@H]2O)[C@H](O)[C@@H](O)[C@@H]1O [α, α-Trehalose, α, α-trehalose, reference compound] here?
A: The value was “(70) %”.

Q: What about the “Protein carbonyl Formation: (%)” value ([1]; 2,4-decadienal) of the same compound?
A: Its value is “(55) %”.

Q: And the “OLAARPs Formation: (%)” value ([1]; MDA)?
A: The value was “(38) %”.

Q: What about the “Protein carbonyl Formation: (%)” value ([1]; MDA) of the same compound?
A: The value was “(67) %”.

Q: What about the “Formed OLAARPs” value [1, 4] of the same compound?
A: Its value is 5.72 μmol/g-L-lysine.

Q: What about the “Formed Protein carbonyl” value [1, 4] of the same compound?
A: Its value is 7.47 μmol/g-L-lysine.

Q: What about the “Formed OLAARPs” value [1, 5] of the same compound?
A: The value was 3.24 μmol/g-L-lysine.

Q: And the “Formed Protein carbonyl” value [1, 5]?
A: The value was 3.99 μmol/g-L-lysine.

Q: And the “Residual vitamin E (%)” value ([2]; 0 days (regarded as 100%))?
A: The value was “(100) %”.

Q: And the “Residual vitamin E (%)” value ([2]; 1 day at 60° C.)?
A: Its value is “(99) %”.

Q: And the “Residual vitamin E (%)” value ([2]; 3 days at 60° C.)?
A: The value was “(85) %”.

Q: What about the “Residual vitamin E (%)” value ([2]; 7 days at 60° C.) of the same compound?
A: The value was “(73) %”.

Q: What about the “Residual vitamin E (%)” value ([2]; 14 days at 60° C.) of the same compound?
A: Its value is “(41) %”.

Q: And the “Amount of vitamin E” value ([2]; 0 days at 60° C.)?
A: Its value is 36.7 mg.

Q: And the “Amount of vitamin E” value ([2]; 1 day at 60° C.)?
A: The value was 36.2 mg.

Q: And the “Amount of vitamin E” value ([2]; 3 days at 60° C.)?
A: The value was 31.0 mg.

Q: What about the “Amount of vitamin E” value ([2]; 7 days at 60° C.) of the same compound?
A: Its value is 26.6 mg.

Q: What about the “Amount of vitamin E” value ([2]; 14 days at 60° C.) of the same compound?
A: Its value is 15.1 mg.

Q: And the “Residual D3 percentage (%)” value [3, 6]?
A: The value was “(100) %”.

Q: What about the “Residual D3 percentage (%)” value ([3]; one day at 60° C.) of the same compound?
A: The value was “(24) %”.

Q: And the “Amount of vitamin D3” value ([3]; just after its preparation)?
A: The value was 4.67 mg.

Q: And the “Amount of vitamin D3” value ([3]; one day at 60° C.)?
A: Its value is 1.11 mg.

Q: What about the “Amount of vitamin D3” value ([3]; seven days at 60° C.) of the same compound?
A: Its value is 1.05 mg.

Q: What about the “Amount of vitamin D3” value ([3]; two days at 60° C.) of the same compound?
A: Its value is 1.02 mg.

Q: And the “Amount of vitamin D3” value ([3]; two hours at 60° C.)?
A: The value was 1.58 mg.

Q: And the “Residual D3 percentage (%)” value ([3]; seven days at 60° C.)?
A: The value was “(22) %”.

Q: And the “Residual D3 percentage (%)” value ([3]; two days at 60° C.)?
A: The value was “(22) %”.

Q: And the “Residual D3 percentage (%)” value ([3]; two hours at 60° C.)?
A: Its value is “(34) %”.

Q: With OCC1OC2OCC3O[C@H](O[C@H]4C(O)C(CO)OC(OCC5O[C@H](O[C@@H](C1O)C2O)C(O)C(O)[C@@H]5O)C4O)C(O)C(O)[C@@H]3O (stereo partly drawn) [Cyclotetrasaccharide, cyclo{→6}-α-D-glucopyranosyl-(1→3)-α-D-glucopyranosyl-(1→6)-α-D-glucopyranosyl-(1→3)-α-D-glucopyranosyl-(1→}] as the compound, how does the “OLAARPs Formation: (%)” value ([1]; 2,4-decadienal) read?
A: Its value is “(67) %”.

Q: And the “Protein carbonyl Formation: (%)” value ([1]; 2,4-decadienal)?
A: Its value is “(48) %”.

Q: What about the “OLAARPs Formation: (%)” value [1, 7] of the same compound?
A: The value was “about 67%”.

Q: And the “Protein carbonyl Formation: (%)” value [1, 7]?
A: The value was “about 48%”.

Q: What about the “OLAARPs Formation: (%)” value ([1]; MDA) of the same compound?
A: The value was “(39) %”.

Q: And the “Protein carbonyl Formation: (%)” value ([1]; MDA)?
A: Its value is “(66) %”.

Q: And the “OLAARPs Formation: (%)” value [1, 8]?
A: The value was “about 39%”.

Q: What about the “Protein carbonyl Formation: (%)” value [1, 8] of the same compound?
A: Its value is “about 66%”.

Q: What about the “Formed OLAARPs” value [1, 4] of the same compound?
A: The value was 5.44 μmol/g-L-lysine.

Q: What about the “Formed Protein carbonyl” value [1, 4] of the same compound?
A: The value was 6.42 μmol/g-L-lysine.

Q: What about the “Formed OLAARPs” value [1, 5] of the same compound?
A: Its value is 3.39 μmol/g-L-lysine.

Q: What about the “Formed Protein carbonyl” value [1, 5] of the same compound?
A: The value was 3.93 μmol/g-L-lysine.

Q: What about the “Residual vitamin E (%)” value ([2]; 0 days (regarded as 100%)) of the same compound?
A: Its value is “(100) %”.

Q: And the “Residual vitamin E (%)” value ([2]; 1 day at 60° C.)?
A: The value was “(98) %”.

Q: And the “Residual vitamin E (%)” value ([2]; 3 days at 60° C.)?
A: The value was “(95) %”.

Q: And the “Residual vitamin E (%)” value ([2]; 7 days at 60° C.)?
A: Its value is “(90) %”.

Q: What about the “Residual vitamin E (%)” value ([2]; 14 days at 60° C.) of the same compound?
A: Its value is “(61) %”.

Q: And the “Amount of vitamin E” value ([2]; 0 days at 60° C.)?
A: The value was 75.9 mg.

Q: What about the “Amount of vitamin E” value ([2]; 1 day at 60° C.) of the same compound?
A: Its value is 74.4 mg.

Q: What about the “Amount of vitamin E” value ([2]; 3 days at 60° C.) of the same compound?
A: The value was 72.0 mg.

Q: And the “Amount of vitamin E” value ([2]; 7 days at 60° C.)?
A: Its value is 68.5 mg.

Q: What about the “Amount of vitamin E” value ([2]; 14 days at 60° C.) of the same compound?
A: The value was 46.3 mg.

Q: What about the “Residual D3 percentage (%)” value [3, 6] of the same compound?
A: Its value is “(100) %”.

Q: What about the “Residual D3 percentage (%)” value ([3]; one day at 60° C.) of the same compound?
A: The value was “(66) %”.

Q: What about the “Amount of vitamin D3” value ([3]; just after its preparation) of the same compound?
A: The value was 5.27 mg.

Q: What about the “Amount of vitamin D3” value ([3]; one day at 60° C.) of the same compound?
A: Its value is 3.49 mg.

Q: And the “Amount of vitamin D3” value ([3]; seven days at 60° C.)?
A: The value was 2.65 mg.

Q: And the “Amount of vitamin D3” value ([3]; two days at 60° C.)?
A: The value was 2.91 mg.

Q: And the “Amount of vitamin D3” value ([3]; two hours at 60° C.)?
A: The value was 4.57 mg.

Q: What about the “Residual D3 percentage (%)” value ([3]; seven days at 60° C.) of the same compound?
A: Its value is “(50) %”.

Q: What about the “Residual D3 percentage (%)” value ([3]; seven days at 60° C., listed as cyclotetrasaccharide) of the same compound?
A: The value was 90%.

Q: What about the “Residual D3 percentage (%)” value ([3]; two days at 60° C.) of the same compound?
A: Its value is “(55) %”.

Q: What about the “Residual D3 percentage (%)” value ([3]; two hours at 60° C.) of the same compound?
A: Its value is “(87) %”.
